# Tests used:
# Assay type in all cases: in vivo
# [1] = tested on: Polygonum convolvulus; assay: Post-emergence herbicidal action, POLCO; conditions: comparative experiment, post-emergence, 5 g of a.i./ha
# Summary of the method: (§1)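 Greenhouse weeds grown in sandy loam were sprayed at the one-leaf stage, 2–3 weeks after sowing, with WP or EC formulations at 600–800 l/ha water plus 0.2% wetting agent. Damage scored visually about 3 weeks later, in percent against untreated controls (100% = plants dead).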
# [2] = tested on: Cyperus esculentus; assay: Pre-emergence herbicidal action, CYPES; set-up: key: % activity: 100 = plants have died, 0 = like control plants; conditions: comparative experiment, 20 g of a.i./ha
# Source text: (§2) 1. Pre-Emergence Herbicidal Action Against Harmful Plants Seeds of monocotyledonous and dicotyledonous weed plants and crop plants are laid out in sandy loam soil in wood-fiber pots and covered with soil. The compounds of the invention, formulated in the form of wettable powders (WP) or as emulsion concentrates (EC), are then applied to the surface of the covering soil in the form of an aqueous suspension or emulsion at a water application rate equating to 600 to 800 l/ha, with addition of 0.2% wetting agent. After the treatment, the pots are placed in a greenhouse and kept under good growth conditions for the trial plants. The damage to the test plants is scored visually after a test period of 3 weeks by comparison with untreated controls (herbicidal activity in percent (%): 100% activity=the plants have died, 0% activity=like control plants). […] The tables below illustrate, in an exemplary manner, the […] herbicidal action of the compounds according to the invention, the herbicidal activity being stated in percent. [table] In the experiments that follow, herbicidal action of numerous inventive compounds and the known compounds that are structurally closest from D1 (WO 2012/028579 A1) and D2 (WO 2018/202535 A1) were compared under the above-specified conditions by the pre-emergence and post-emergence method. The example numbers given in the tables relate to the compounds disclosed in the respective documents. In addition to the compounds disclosed in D1 and D2, the following compounds V-1 to V-14 that are encompassed by D1 or D2 but are not compounds specified therein were used in the comparative experiments: • V-1: 2-(methylsulfanyl)-3-(methylsulfinyl)-N-(1-methyl-1H-tetrazol-5-yl)-4-(trifluoromethyl)benzamide • V-2: 2-(methylsulfanyl)-3-(methylsulfonyl)-N-(1-methyl-1H-tetrazol-5-yl)-4-(trifluoromethyl)benzamide • V-3: 2,3-bis(ethylsulfanyl)-N-(1-methyl-1H-tetrazol-5-yl)-4-(trifluoromethyl)benzamide • V-4: 2-chloro-3-(ethylsulfanyl)-N-(1-methyl-1H-tetrazol-5-yl)-4-(trifluoromethyl)benzamide • V-5: 2-chloro-4-iodo-3-(methylsulfanyl)-N-(1-methyl-1H-tetrazol-5-yl)benzamide • V-6: 2-chloro-4-iodo-3-(methylsulfinyl)-N-(1-methyl-1H-tetrazol-5-yl)benzamide • V-7: 2-chloro-4-iodo-3-(methylsulfonyl)-N-(1-methyl-1H-tetrazol-5-yl)benzamide • V-8: 2-bromo-3-(methylsulfanyl)-N-(1-methyl-1H-tetrazol-5-yl)-4-(trifluoromethyl)benzamide • V-9: 2-bromo-3-(methylsulfinyl)-N-(1-methyl-1H-tetrazol-5-yl)-4-(trifluoromethyl)benzamide • V-10: 2-bromo-3-(methylsulfonyl)-N-(1-methyl-1H-tetrazol-5-yl)-4-(trifluoromethyl)benzamide • V-11: 2-bromo-3-(ethylsulfanyl)-N-(1-methyl-1H-tetrazol-5-yl)-4-(trifluoromethyl)benzamide • V-12: 2-bromo-3-(ethylsulfinyl)-N-(1-methyl-1H-tetrazol-5-yl)-4-(trifluoromethyl)benzamide • V-13: 2-bromo-3-(ethylsulfonyl)-N-(1-methyl-1-1H-tetrazol-5-yl)-4-(trifluoromethyl)benzamide • V-14: 2-cyclopropyl-3-(ethylsulfanyl)-N-(1-methyl-1H-tetrazol-5-yl)-4-(trifluoromethyl)benzamide Herbicidal Pre-Emergence Action: […]
# [3] = tested on: Setaria viridis; assay: Pre-emergence herbicidal action, SETVI; set-up: key to Herbicidal action against SETVI: % activity: 100 = plants have died, 0 = like control plants; conditions: for Herbicidal action against SETVI: comparative experiment, 20 g of a.i./ha
# Summary of the method: (§3)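 Sown pots (sandy loam) sprayed pre-emergence → greenhouse → visual rating at 3 weeks; % activity vs untreated control, 100% = dead.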
# [4] = tested on: Matricaria inodora; assay: Pre-emergence herbicidal action, MATIN; set-up: key to Herbicidal action against MATIN: % activity: 100 = plants have died, 0 = like control plants; conditions: for Herbicidal action against MATIN: comparative experiment, 20 g of a.i./ha
# Summary of the method: as §3
# [5] = tested on: Polygonum convolvulus; assay: Pre-emergence herbicidal action, POLCO
# Summary of the method: as §3
# [6] = tested on: Echinochloa crus-galli; assay: Pre-emergence herbicidal action, ECHCG; set-up: key to Herbicidal action against ECHCG: % activity: 100 = plants have died, 0 = like control plants; conditions: for pest or weed control at 20 g/ha: Echinochloa crus-galli, 504 h, read-out: Herbicidal action against ECHCG
# Summary of the method: as §3
# [7] = tested on: Amaranthus retroflexus; assay: Pre-emergence herbicidal action, AMARE; set-up: key to Herbicidal action against AMARE: % activity: 100 = plants have died, 0 = like control plants; conditions: for Herbicidal action against AMARE: comparative experiment, 20 g of a.i./ha
# Summary of the method: as §3
# [8] = tested on: Pharbitis purpurea; assay: Pre-emergence herbicidal action, PHBPU; conditions: dosage 320 g/ha, scored visually after 3 weeks vs untreated controls (100% = plants have died)
# Source text: as §2
# [9] = tested on: Veronica persica; assay: Pre-emergence herbicidal action, VERPE; set-up: key to Herbicidal action against VERPE: % activity: 100 = plants have died, 0 = like control plants; conditions: for Herbicidal action against VERPE: comparative experiment, 20 g of a.i./ha
# Summary of the method: as §3
# [10] = tested on: Abutilon theophrasti; assay: Pre-emergence herbicidal action, ABUTH; set-up: key to Herbicidal action against ABUTH: % activity: 100 = plants have died, 0 = like control plants
# Summary of the method: as §3
# [11] = tested on: Hordeum murinum; assay: Pre-emergence herbicidal action, HORMU; conditions: dosage 320 g/ha, scored visually after 3 weeks vs untreated controls (100% = plants have died)
# Source text: as §2
# [12] = tested on: Viola tricolor; assay: Pre-emergence herbicidal action, VIOTR; set-up: key to Herbicidal action against VIOTR: % activity: 100 = plants have died, 0 = like control plants
# Summary of the method: as §3
# [13] = tested on: Stellaria media; assay: Pre-emergence herbicidal action, STEME; set-up: key to Herbicidal action against STEME: % activity: 100 = plants have died, 0 = like control plants; conditions: for Herbicidal action against STEME: comparative experiment, 20 g of a.i./ha
# Summary of the method: as §3
# [14] = tested on: Stellaria media; assay: Post-emergence herbicidal action, STEME; set-up: key: % herbicidal action vs untreated; 100 = plants died, 0 = like control; conditions: comparative experiment, post-emergence, 5 g of a.i./ha
# Summary of the method: as §1
# [15] = tested on: Cyperus esculentus; assay: Post-emergence herbicidal action, CYPES; set-up: key: % herbicidal action vs untreated; 100 = plants died, 0 = like control; conditions: comparative experiment, post-emergence, 5 g of a.i./ha
# Description: (§4) [table] 2. Post-Emergence Herbicidal Action Against Harmful Plants Seeds of monocotyledonous and dicotyledonous weed and crop plants are laid out in sandy loam soil in wood-fiber pots, covered with soil and cultivated in a greenhouse under good growth conditions. 2 to 3 weeks after sowing, the test plants are treated at the one-leaf stage. The compounds of the invention, formulated in the form of wettable powders (WP) or as emulsion concentrates (EC), are then sprayed onto the green parts of the plants in the form of an aqueous suspension or emulsion at a water application rate equating to 600 to 800 l/ha, with addition of 0.2% wetting agent. After the test plants have been left to stand in the greenhouse under optimal growth conditions for about 3 weeks, the action of the preparations is assessed visually in comparison to untreated controls (herbicidal action in percent (%): 100% activity=the plants have died, 0% activity=like control plants). […] The tables below illustrate, in an exemplary manner, the post-emergence herbicidal action of the compounds according to the invention, the herbicidal activity being stated in percent. In the experiments that follow, herbicidal action of numerous inventive compounds and the known compounds that are structurally closest from D1 (WO 2012/028579 A1) and D2 (WO 2018/202535 A1) were compared under the above-specified conditions by the pre-emergence and post-emergence method. The example numbers given in the tables relate to the compounds disclosed in the respective documents. In addition to the compounds disclosed in D1 and D2, the following compounds V-1 to V-14 that are encompassed by D1 or D2 but are not compounds specified therein were used in the comparative experiments: • V-1: 2-(methylsulfanyl)-3-(methylsulfinyl)-N-(1-methyl-1H-tetrazol-5-yl)-4-(trifluoromethyl)benzamide • V-2: 2-(methylsulfanyl)-3-(methylsulfonyl)-N-(1-methyl-1H-tetrazol-5-yl)-4-(trifluoromethyl)benzamide • V-3: 2,3-bis(ethylsulfanyl)-N-(1-methyl-1H-tetrazol-5-yl)-4-(trifluoromethyl)benzamide • V-4: 2-chloro-3-(ethylsulfanyl)-N-(1-methyl-1H-tetrazol-5-yl)-4-(trifluoromethyl)benzamide • V-5: 2-chloro-4-iodo-3-(methylsulfanyl)-N-(1-methyl-1H-tetrazol-5-yl)benzamide • V-6: 2-chloro-4-iodo-3-(methylsulfinyl)-N-(1-methyl-1H-tetrazol-5-yl)benzamide • V-7: 2-chloro-4-iodo-3-(methylsulfonyl)-N-(1-methyl-1H-tetrazol-5-yl)benzamide • V-8: 2-bromo-3-(methylsulfanyl)-N-(1-methyl-1H-tetrazol-5-yl)-4-(trifluoromethyl)benzamide • V-9: 2-bromo-3-(methylsulfinyl)-N-(1-methyl-1H-tetrazol-5-yl)-4-(trifluoromethyl)benzamide • V-10: 2-bromo-3-(methylsulfonyl)-N-(1-methyl-1H-tetrazol-5-yl)-4-(trifluoromethyl)benzamide • V-11: 2-bromo-3-(ethylsulfanyl)-N-(1-methyl-1H-tetrazol-5-yl)-4-(trifluoromethyl)benzamide • V-12: 2-bromo-3-(ethylsulfinyl)-N-(1-methyl-1H-tetrazol-5-yl)-4-(trifluoromethyl)benzamide • V-13: 2-bromo-3-(ethylsulfonyl)-N-(1-methyl-1-1H-tetrazol-5-yl)-4-(trifluoromethyl)benzamide • V-14: 2-cyclopropyl-3-(ethylsulfanyl)-N-(1-methyl-1H-tetrazol-5-yl)-4-(trifluoromethyl)benzamide Herbicidal Pre-Emergence Action: […]
# [16] = tested on: Alopecurus myosuroides; assay: Post-emergence herbicidal action, ALOMY; set-up: key: % herbicidal action vs untreated; 100 = plants died, 0 = like control; conditions: comparative experiment, post-emergence, 5 g of a.i./ha
# Description: as §4
# [17] = tested on: Amaranthus retroflexus; assay: Post-emergence herbicidal action, AMARE; set-up: key: % herbicidal action vs untreated; 100 = plants died, 0 = like control; conditions: comparative experiment, post-emergence, 5 g of a.i./ha
# Summary of the method: as §1
# [18] = tested on: Alopecurus myosuroides; assay: Pre-emergence herbicidal action, ALOMY; set-up: key: % activity: 100 = plants have died, 0 = like control plants; conditions: comparative experiment, 20 g of a.i./ha
# Source text: as §2
# [19] = dosage 320 g/ha, scored visually after 3 weeks vs untreated controls (100% = plants have died)
# [20] = comparative experiment, 20 g of a.i./ha
compound,measurement,setting,value
CSc1c(C(=O)Nc2nnnn2C)ccc(C(F)(F)F)c1CS(C)(=O)=O [Example 1-163],Herbicidal action against POLCO,[1],70
same,Herbicidal action against CYPES,[2],70
same,herbicidal activity SETVI,[3]; [19],100%
same,herbicidal activity MATIN,[4]; [19],100%
same,Herbicidal action against POLCO,[5]; [20],70
same,herbicidal activity POLCO,[5]; [19],100%
same,Herbicidal action against ECHCG,[6]; [20],90
same,herbicidal activity ECHCG,[6]; [19],100%
same,herbicidal activity AMARE,[7]; [19],100%
same,herbicidal activity PHBPU,[8],80%
same,herbicidal activity VERPE,[9]; [19],100%
same,herbicidal activity ABUTH,[10]; [19],100%
same,herbicidal activity HORMU,[11],90%
same,herbicidal activity VIOTR,[12]; [19],100%
same,herbicidal activity STEME,[13]; [19],100%
"CSc1c(I)ccc(C(=O)Nc2nnnn2C)c1Cl [Example V-5, 2-chloro-4-iodo-3-(methylsulfanyl)-N-(1-methyl-1H-tetrazol-5-yl)benzamide, reference compound]",Herbicidal action against STEME,[14],10
same,Herbicidal action against CYPES,[15],10
same,Herbicidal action against CYPES,[2],0
same,Herbicidal action against SETVI,[3],0
same,Herbicidal action against MATIN,[4],20
same,Herbicidal action against ALOMY,[16],40
same,pest or weed control at 20 g/ha,[6]; [20],0%
same,Herbicidal action against AMARE,[7],70
same,Herbicidal action against VERPE,[9],0
same,Herbicidal action against AMARE,[17],70
same,Herbicidal action against STEME,[13],0
"Cn1nnnc1NC(=O)c1ccc(I)c([S+](C)[O-])c1Cl (stereo not drawn) [Example V-6, 2-chloro-4-iodo-3-(methylsulfinyl)-N-(1-methyl-1H-tetrazol-5-yl)benzamide, reference compound]",Herbicidal action against SETVI,[3],60
same,Herbicidal action against MATIN,[4],60
same,Herbicidal action against ALOMY,[18],30
same,Herbicidal action against AMARE,[7],50
same,Herbicidal action against ABUTH,[10]; [20],40
same,Herbicidal action against STEME,[13],0
"Cn1nnnc1NC(=O)c1ccc(C(F)(F)F)c([S+](C)[O-])c1Br (stereo not drawn) [Example V-9, 2-bromo-3-(methylsulfinyl)-N-(1-methyl-1H-tetrazol-5-yl)-4-(trifluoromethyl)benzamide, reference compound]",Herbicidal action against SETVI,[3],40
same,Herbicidal action against ALOMY,[18],20
same,pest or weed control at 20 g/ha,[6]; [20],60%
same,Herbicidal action against VIOTR,[12]; [20],70
same,Herbicidal action against STEME,[13],60
"Cn1nnnc1NC(=O)c1ccc(C(F)(F)F)c(S(C)(=O)=O)c1Br [Example V-10, 2-bromo-3-(methylsulfonyl)-N-(1-methyl-1H-tetrazol-5-yl)-4-(trifluoromethyl)benzamide, reference compound]",Herbicidal action against ALOMY,[18],10
same,Herbicidal action against VERPE,[9],60

# Source: patent US12492173B2, “Herbicidal substituted N-tetrazolyl aryl carboxamides” (Bayer Aktiengesellschaft, priority 2019, dated 2025)
